The record followed here is patent US6737383B1, “Herbicidal oxadiazolidines” (priority 1999, dated 2004).

The structures appear in SMILES notation.

For one test, the system named is cotton. The experiment in a line: Test C postemergence cotton. The test is classed as in vivo, Gossypium hirsutum. Conditions: 0 to 100 scale, 0 no effect, 100 complete control. The procedure:
(§1) Compounds evaluated in this test were formulated in a non-phytotoxic solvent mixture which included a surfactant and applied to plants that were grown for various periods of time before treatment (postemergence application). A mixture of sandy loam soil and greenhouse potting mix in a 60:40 ratio was used for the postemergence test.
(§2) Plantings of these crops and weed species were adjusted to produce plants of appropriate size for the postemergence test. All plant species were grown using normal greenhouse practices. Crop and weed species include arrowleaf sida (Sida rhombifolia), barnyardgrass (Echinochloa crus-galli), cocklebur (Xanthium strumarium), common ragweed (Ambrosia elatior), corn (Zea mays), cotton (Gossypium hirsutum), eastern black nightshade (Solanum ptycanthum), fall panicum (Panicum dichotomiflorum), field bindweed (Convolvulus arvensis), giant foxtail (Setaria faberii), hairy beggarticks (Bidens pilosa), ivyleaf morningglory (Ipomoea hederacea), johnsongrass (Sorghum halepense), ladysthumb smartweed (Polygonum persicaria), lambsquarters (Chenopodium album), large crabgrass (Digitaria sanguinalis), purple nutsedge (Cyperus rotundus), redroot pigweed (Amaranthus retroflexus), soybean (Glycine max), surinam grass (Brachiaria decumbens), velvetleaf (Abutilon theophrasti) and wild poinsettia (Euphorbia heterophylla).
(§3) Treated plants and untreated controls were maintained in a greenhouse for approximately 14, to 21 days, after which all treated plants were compared to untreated controls and visually evaluated. Plant response ratings, summarized in Table C, were based upon a 0 to 100 scale where 0 was no effect and 100 was complete control. A dash response (−) means no test result.

A further test deals with Green foxtail. The experiment in a line: Test D green foxtail. The test is classed as in vivo. An excerpt:
Seeds, tubers, or plant parts of Alexandergrass (Brachiaria plantaginea), bermuda-grass (Cynodon dactylon), common pursiane (Portulaca oleracea), common ragweed (Ambrosia elatior), common groundsel (Senecio vulgaris), dallisgrass (Paspalum dilatatum), goosegrass (Eleusine indica), guineagrass (Panicum maximum), itchgrass (Rottboellia exaltata), Johnson grass (Sorghum halepense), large crabgrass (Digitaria sanguinalis), pitted morningglory (Ipomoea lacunosa), purple nutsedge (Cyperus rotundus), sandbur (Cenchrus echinatus), sourgrass (Trichachne insularis), Spanishneedles (Bidens bipinnata), surinam grass (Brachiaria decumbens) and tall mallow (Malva sylvestris) were planted into greenhouse pots of flats containing greenhouse planting medium. Plant species were grown in separate pots or individual compartments. Preemergence applications were made within one day of planting the seed or plant part.
Test chemicals were formulated in a non-phytotoxic solvent mixture which included a surfactant and applied preemergence to the surface of the pot containing seeds in a sandy loam soil. Untreated control pots and treated pots were placed in the greenhouse for growth and visually evaluated for injury 14 to 21 days after herbicide application. Plant response ratings, summarized in Table C, are based on a 0 to 100 scale where 0 is no injury and 100 is complete control. A dash (−) response means no test result.

A further test relates to surinam grass. The experiment in a line: Test C postemergence surinam grass. The test is classed as in vivo, Brachiaria decumbens. Conditions: 0 to 100 scale, 0 no effect, 100 complete control. The procedure:
as §1, §2, §3

The test system of another test is hairy beggarticks. Description: Test C postemergence hairy beggarticks. The test is classed as in vivo, Bidens pilosa. Conditions: 0 to 100 scale, 0 no effect, 100 complete control. As to the method: as §1, §2, §3
Another test has as its system corn. The experiment in a line: Test C postemergence corn. Conditions: 0 to 100 scale, 0 no effect, 100 complete control. The test is classed as in vivo, Zea mays. The procedure, abridged: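 Compounds in a non-phytotoxic solvent mixture with surfactant were sprayed postemergence on greenhouse-grown plants sized for treatment, in 60:40 sandy loam soil:potting mix. After about 14 to 21 days, injury was rated visually against untreated controls on a 0–100 scale (0 no effect, 100 complete control).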

The mark [1] stands for this setting: Rate 64 g/ha, Preemergence; 0 to 100 scale, 0 no injury, 100 complete control.
The mark [2] stands for this setting: Rate 125 g/ha, Preemergence; 0 to 100 scale, 0 no injury, 100 complete control.

Consider `CC(C)N(C(=O)n1oc(=O)n(C(C)C)c1=O)c1ccccc1` [Compound 113], for which the “Plant response rating Cotton” value was 10 with cotton (Rate 140 g/ha), 15 with cotton (Rate 280 g/ha), 50 in the test with cotton (Rate 560 g/ha) and 80 in the test on cotton (Rate 1120 g/ha). Besides, the “Plant response rating, Green foxtail” value was 80 in the test with Green foxtail (Preemergence; Rate 16 g/ha; 0 to 100 scale, 0 no injury, 100 complete control); 98 in the test on Green foxtail (Preemergence; Rate 32 g/ha; 0 to 100 scale, 0 no injury, 100 complete control); 80 in the test on Green foxtail (Rate 16 g/ha; Preemergence; 0 to 100 scale, 0 no injury, 100 complete control); 70 in the test with Green foxtail (Rate 32 g/ha; Preemergence; 0 to 100 scale, 0 no injury, 100 complete control); 100 in the test with Green foxtail (setting [1]); 100 in the test with Green foxtail (setting [2]). Moreover, the “Green foxtail plant response rating” value with Green foxtail (setting [1]) and in the test with Green foxtail (setting [2]) was 100 each time. Also, the “Plant response rating, Surinam grass” value in the test on surinam grass (Rate 140 g/ha) is given as 0; in the test with surinam grass (Rate 280 g/ha) it was 40; with surinam grass (Rate 560 g/ha) it was 90; in the test with surinam grass (Rate 1120 g/ha), 90. The “Plant response rating H. beggarticks” value with hairy beggarticks (Rate 140 g/ha) is 5; in the test on hairy beggarticks (Rate 280 g/ha) it was 30; in the test on hairy beggarticks (Rate 560 g/ha) it was 30; in the test on hairy beggarticks (Rate 1120 g/ha), 50. Moreover, the “Plant response rating, Corn” value with corn (Rate 140 g/ha) is 0; in the test with corn (Rate 280 g/ha) it was 40; with corn (Rate 560 g/ha), 45; in the test on corn (Rate 1120 g/ha), 60.
